Reference: PubChem BioAssay (NCI)
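Test compounds were applied to cells in 96-well plates for 48 hours at 5 doses. TGI denotes the concentration required for complete inhibition of growth.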 Where a SMILES comes first, the peptide text is derived from it. [ ]: non-standard residue; d: D form.

How the values were obtained:
Assay in all cases: inhibition of tumour cell growth, NCI panel, 48 h
[1] = system: 786-0 renal
[2] = system: A498 renal
[3] = system: A549 NSCLC
[4] = system: ACHN renal
[5] = system: BT-549 breast
[6] = system: CAKI-1 renal
[7] = system: CCRF-CEM leukemia
[8] = system: COLO 205 colon
[9] = system: DU-145 prostate
[10] = system: EKVX NSCLC
[11] = system: HCC-2998 colon
[12] = system: HCT-116 colon
[13] = system: HCT-15 colon
[14] = system: HL-60(TB) leukemia
[15] = system: HOP-62 NSCLC
[16] = system: HOP-92 NSCLC
[17] = system: HS 578T breast
[18] = system: HT29 colon
[19] = system: IGROV1 ovarian
[20] = system: K-562 leukemia
[21] = system: KM12 colon
[22] = system: LOX IMVI melanoma
[23] = system: M14 melanoma
[24] = system: MCF7 breast
[25] = system: MDA-MB-231 breast
[26] = system: MDA-MB-435
[27] = system: MOLT-4 leukemia
[28] = system: NCI-H226 lung
[29] = system: NCI-H23 lung
[30] = system: NCI-H460 lung
[31] = system: NCI-H522 lung
[32] = system: NCI/ADR-RES ovarian
[33] = system: OVCAR-3 ovarian
[34] = system: OVCAR-4 ovarian
[35] = system: OVCAR-5 ovarian
[36] = system: OVCAR-8 ovarian
[37] = system: PC-3 prostate
[38] = system: RPMI-8226 leukemia
[39] = system: RXF 393 renal
[40] = system: SF-268 CNS
[41] = system: SF-295 CNS
[42] = system: SF-539 CNS
[43] = system: SK-MEL-2 melanoma
[44] = system: SK-MEL-5 melanoma
[45] = system: SK-OV-3 ovarian
[46] = system: SN12C renal
[47] = system: SNB-19 CNS
[48] = system: SR leukemia
[49] = system: SW-620 colon
[50] = system: T-47D breast
[51] = system: TK-10 renal
[52] = system: U251 CNS
[53] = system: UACC-257 melanoma
[54] = system: UACC-62 melanoma
[55] = system: UO-31 renal
[56] = system: SK-MEL-28 melanoma
[57] = system: SNB-75 CNS

Measured: TGI

NC(N)=NCCC[C@H]1NC(=O)[C@@H](CCC(=O)O)NC(=O)[C@@H](CC(=O)O)NC(=O)[C@@H](CCC(=O)O)NC(=O)[C@H](Cc2c[nH]c3ccccc23)NC1=O (cyclo(W[dE][dD][dE][dR]))
> 7.5 µM: [1] | [2] | [3] | [4] | [5] | [6] | [7] | [8] | [9] | [10] | [11] | [12] | [13] | [14] | [15] | [16] | [17] | [18] | [19] | [20] | [21] | [22] | [23] | [24] | [25] | [26] | [27] | [28] | [29] | [30] | [31] | [32] | [33] | [34] | [35] | [36] | [37] | [38] | [39] | [40] | [41] | [42] | [44] | [45] | [46] | [47] | [48] | [49] | [50] | [51] | [52] | [53] | [54] | [55]
0.507 µM: [43]

CCCCCCCCCCCCc1ccsc1-c1ccc(-c2ccc(-c3sc(-c4cc(CCCCCCCCCCCC)c(-c5ccc(-c6ccc(-c7sccc7CCCCCCCCCCCC)s6)s5)s4)cc3CCCCCCCCCCCC)s2)s1
> 100 µM: [1] | [2] | [3] | [4] | [5] | [6] | [7] | [8] | [9] | [10] | [11] | [12] | [13] | [14] | [15] | [16] | [17] | [18] | [19] | [20] | [21] | [23] | [24] | [25] | [26] | [27] | [28] | [29] | [30] | [31] | [32] | [33] | [34] | [35] | [36] | [37] | [38] | [39] | [40] | [41] | [42] | [43] | [56] | [44] | [45] | [46] | [47] | [57] | [49] | [50] | [51] | [52] | [53] | [54] | [55]
75.2 µM: [48]

COc1ccc(C(C)c2cc3c(cc2O)OCO3)cc1 (configuration not stated)
28.5 µM: [2]
30.8 µM: [24]
30.1 µM: [39]
33 µM: [56]
33.7 µM: [15]
24.4 µM: [54]
23.2 µM: [13]
27.4 µM: [8]
19.3 µM: [11]
31 µM: [16]
47.6 µM: [4]
49.6 µM: [10]
29.8 µM: [55]
38.8 µM: [38]
28.3 µM: [33]
66.6 µM: [47]
36.5 µM: [9] | [19]
> 100 µM: [34]
32.2 µM: [3] | [53]
32.5 µM: [5] | [40]
79.1 µM: [50]
27.2 µM: [23]
45.2 µM: [35]
31.1 µM: [29]
28 µM: [49]
13.6 µM: [48]
28.8 µM: [30]
35.9 µM: [51]
26.5 µM: [22]
36.1 µM: [28]
37 µM: [42]
74.4 µM: [6]
35.3 µM: [41]
28.1 µM: [44]
28.9 µM: [18] | [43]
29.4 µM: [27]
33.3 µM: [46]
42.6 µM: [17]
32.3 µM: [14]
32.7 µM: [32]
60.2 µM: [57]
18 µM: [26]
53.2 µM: [45]
29.6 µM: [12]
31.9 µM: [37]
28.7 µM: [20]
83.3 µM: [21]
31.7 µM: [36]
26 µM: [31]
28.6 µM: [25] | [52]
34.5 µM: [1]
